Measurements: patent US20130303619A1, “Antibacterial Compositions” (priority 2009, published 2013)
Entries after “also recorded” stand apart in the source; their conditions may differ.

Assays:
[1] = system: LL-37 mRNA in cheek epithelial cells; assay: In vivo LL-37 mRNA expression by human cheek epithelial cells after mouthwash (RT-PCR); settings: mouthwash with EGCG (40 ug/ml), after only 5 minutes from application
Source text: (§1) Cheek epithelium is utilized for monitoring LL-37 mRNA and protein expression to determine if Trihydroxybenzoate Derivatives of the Invention can induce LL-37 in vivo. […] The isolated cheek cells are also subjected to Western blot analysis for protein expression of LL-37 by cheek epithelium using anti-LL-37 monoclonal antibody. The expression of both the proform (18 kD, also termed as hCAP18) and secreted form (4.5 kD) of LL-37 (12) in cheek epithelial cells is induced by Trihydroxybenzoate Derivatives of the Invention (e.g., EGCG (95% SIGMA), or by EGCG (90% Teavigo)).

LL37 mRNA in OBA9 cells = assay: EGCG-induced LL37 mRNA expression in OBA9 cells with or without DDX5 RNAi (RT-PCR); format: cell-based, human; settings: EGCG 40 ng/ml, 30 minutes
Experimental: (§2) Our hypothesis that THBC induction of LL-37 expression is mediated via binding to DDX5 is further supported by the finding that inhibition of DDX5 expression in gingival epithelial cells (OBA9) reduces EGCG-mediated LL-37 expression. Confluent OBA9 cells in a tissue culture plate are treated with or without DDX5-specific siRNA sequences (three different siRNA sequences specific to DDX5 are examined). After 24 h and 48 h incubation, total RNA and proteins are extracted, respectively, from the OBA9 cells. […] The OBA9 cells pre-incubated with non-target siRNA and DDX5-siRNA for 48 hours are restimulated with EGCG (40 ng/ml) for 30 min, and mRNA expression for LL-37 and […] was detected by RT-PCR. […] Effects of DDX5-siRNA treatment on EGCG-mediated LL-37 protein expression by OBA9 cells is measured by ELISA.
After treatment of OBA9 cells with control non-target siRNA or DDX5-siRNA (#A) for 48 hours, the OBA9 cells were incubated with or without EGCG (40 ng/ml) for 30 minutes. The total RNA isolated from the OBA9 cells was subjected to RT-PCR for LL37 mRNA as well as internal control β-actin mRNA.

[2] = biological target: T1, DEAD box polypeptide 5 (DDX5) (Homo sapiens, UniProt P17844); assay: Pull down assay with benzoic acid-coupled beads and OBA9 cell lysate, Mass-Spec; format: binding; settings: beads incubated with OBA9 cell lysate
T1 construct: endogenous in cells; host or cells: OBA9 human gingival epithelial cell line (lysate)
T1 sequence (P17844 whole entry): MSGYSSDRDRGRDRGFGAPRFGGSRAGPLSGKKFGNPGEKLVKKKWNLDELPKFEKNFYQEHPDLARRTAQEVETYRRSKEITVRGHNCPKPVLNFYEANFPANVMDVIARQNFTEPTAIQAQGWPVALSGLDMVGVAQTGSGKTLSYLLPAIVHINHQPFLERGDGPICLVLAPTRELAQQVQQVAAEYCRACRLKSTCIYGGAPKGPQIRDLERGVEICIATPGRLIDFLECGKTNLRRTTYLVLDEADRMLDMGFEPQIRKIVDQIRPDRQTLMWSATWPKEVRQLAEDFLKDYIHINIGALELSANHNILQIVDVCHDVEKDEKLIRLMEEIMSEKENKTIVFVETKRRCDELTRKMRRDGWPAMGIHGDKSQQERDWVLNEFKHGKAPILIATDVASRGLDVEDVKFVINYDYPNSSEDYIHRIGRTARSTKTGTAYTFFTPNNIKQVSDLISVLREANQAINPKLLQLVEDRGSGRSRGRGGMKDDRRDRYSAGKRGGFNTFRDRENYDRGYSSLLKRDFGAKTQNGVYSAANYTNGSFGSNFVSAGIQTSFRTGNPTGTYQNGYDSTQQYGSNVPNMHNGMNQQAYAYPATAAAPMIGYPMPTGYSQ
Source text: FIG. 1 is a schematic showing a pull down assay to determine counter ligand of benzoic acids expressed on OBA9 cells is DDX5. OBA9 cells were harvested and dissolved in lysis buffer. The resulting cell lysis solution was reacted with Sephadex beads conjugated with 2,6-dihydroxy benzoic acid (DHBC) and 2,3,4-trihydroxy benzoic acid (THBC). The cellular components pulled down with beads were separated in SDS-PAGE gel, and stained with Coomassie blue. The 35 kD and 70 kD bands specific to 2,3,4-THBC were subjected to Mass-Spec analysis at Tufts University Core Facility. The procedure for pull down assay includes preparation of cell lysate from gingival epithelial cell (OBA9) culture; preparation of beads conjugated with tri-hydroxy benzoic acid (THBC); incubation of beads with OBA9 cell lysate; remove unbound protein by washing beads; the proteins bound to beads are separated in SDS-PAGE; distinct bands to 2,3,4-THBC are sent for Mass-Spec service; and identification of molecular finger print of 2,3,4-THBC binding ligand.
FIG. 2 is a schematic including the molecular finger print found in 70 kD band specific to 2,3,4-THDC that is DDX5 (SEQ ID NO: 1). The 35 kD, 70 kD and 90 kD bands specific to 2,3,4-THBC were subjected to Mass-Spec analysis service. […] Result data sheet that identified DDX5 in 70 kD band is shown.
In order to confirm if LL-37 induction in epithelial cells by EGCG is dependent on the activation of cell ligand (either cytoplasm or cell surface), or previously known anti-oxidant effects by EGCG, 3,4,5-tri-hydroxy benzoic acid-coupled beads and control 2,6-di-hydroxy benzoic acid-coupled beads are utilized to pull down the possible ligand for 3,4,5-tri-hydroxy benzoic acid. After incubation of each bead with cell lysate of OBA9, the beads are washed, and the cellular materials that bind to the beads are separated in SDS-PAGE. At least 3 bands (MW 35 kD, 70 kD and 90 kD), which are distinct to 3,4,5-tri-hydroxy benzoic acid, are detected, as compared to the other beads (control, 2,6-di-hydroxy benzoic acid and control plain beads). […]

[3] = system: LL37 protein in OBA9 cells; assay: EGCG-induced LL37 protein expression in OBA9 cells with or without DDX5 RNAi (ELISA); format: cell-based, human; settings: OBA9 culture supernatant, EGCG 40 ng/ml, 30 min to 24 hours
Experimental: as §2
The OBA9 cells which were pre-treated with control non-target siRNA or DDX5-siRNA (#A) for 48 hours, as shown in 1-B, were incubated with EGCG (40 ng/ml) for different periods from 30 min to 24 hours. The supernatant harvested from the OBA9 cell culture was subjected to ELISA for LL37 protein.

hBD2 mRNA in A549 = assay: hBD2 mRNA level in lung carcinoma cell line; format: cell-based; settings: human lung carcinoma cell line A549
Experimental: (§3) Both LL-37 and hBD2 mRNA expression in OBA9 cells are induced after a 4-hour exposure to green tea polyphenol extract, Teaflan 90S (EGCG 50%, ECG 13%), and purified EGCG (95% pure, SIGMA) at concentrations of 0.1, 1.0 and 10 ug/ml. EGCG increases the production of LL-37 and hBD2 at the mRNA level in the human gingival epithelial cell line OBA9 (FIG. 1) as well as the human lung carcinoma cell line A549.

[4] = system: LL-37 protein in cheek epithelial cells; assay: LL-37 protein expression by cheek epithelium (Western blot); format: in vivo, human; settings: isolated cheek cells, anti-LL-37 monoclonal antibody
Source text: as §1

[5] = system: hBD2 mRNA expression in OBA9 cells; assay: hBD2 mRNA expression in human gingival epithelial cells; format: cell-based; settings: 4-hour exposure, 0.1, 1.0 and 10 ug/ml
Experimental: as §3

[6] = system: LL-37 mRNA expression in OBA9 cells; assay: LL-37 mRNA expression in human gingival epithelial cells; format: cell-based; settings: 4-hour exposure, 0.1, 1.0 and 10 ug/ml
Experimental: as §3

LL-37 in OBA9 cells = assay: EGCG-induced LL-37 (ELISA) in OBA9 cells over expressing DDX5; format: cell-based, human; settings: EGCG 40 ng/ml, 2 hours
Experimental: The OBA9 cells transfected with either DDX5 over-expression vector (pK0203) or control empty vector (pKO108) were cultured for 48 h. Thereafter, the OBA9 cells were incubated with or without EGCG (40 ng/ml) for 2 hours, and the culture supernatant was subjected to ELISA for the detection of LL-37.

[7] = system: Actinobacillus actinomycetemcomitans Y4 (Aa Y4); assay: Bactericidal effect of culture supernatant of treated OBA9 cells; format: cell-based; settings: 20 ug/ml; compared with non-treated, catechin- or 2,4-dihydroxy benzoic acid-treated OBA9 supernatant
Experimental: The culture supernatant isolate from OBA9 is treated with 1) EGCG, 2) catechin, 3) 2,4-dihydroxy benzoic acid, and 4) 3,4,5-tri-hydroxy benzoic acid (20 ug/ml, respectively) and examined for their bactericidal effects on Actinobacillus actinomycetemcomitans Y4 (Aa Y4).

LL-37 mRNA in A549 = assay: LL-37 mRNA level in lung carcinoma cell line; format: cell-based; settings: human lung carcinoma cell line A549
Experimental: as §3

LL-37 from OBA9 cells = assay: In vitro induction of LL-37 protein (ELISA) from OBA9 cells; format: cell-based, human; settings: 20 ug/ml
Experimental: (§4) Using ELISA systems to detect LL-37 (Forsyth in-house) and hBD2 (Peprotech), 33 natural compounds (20 ug/ml) are examined for their ability to induce LL-37 and hBD2 from OBA9 cells. Although the sensitivity of the hBD2 ELISA is higher than that of LL-37 ELISA (10 pg/ml vs 1 ng/ml, respectively), the induction of LL-37 is more prominent than hBD2 (FIG. 2 A&B, LL-37; C&D, hBD2). […] Bactericidal effects of LL-37 and hBD2 are, in general, potent.
The trihydroxybenzoate derivatives of the Invention and rosemarinic acid, courmarin, catechin gallate, epicatechin gallate, epigallocatechin, and tannic acid are tested to induce LL-37 from OBA9 cells in the absence of EGCG.

hBD2 from OBA9 cells = assay: In vitro induction of hBD2 protein (ELISA) from OBA9 cells; format: cell-based, human; settings: 20 ug/ml
Experimental: as §4

[8] = system: LL-37 expression by OBA9 cells; assay: LL-37 expression by OBA9 cells with Sepharose-coupled benzoic acid isomers; format: cell-based, human; settings: isomer coupled to NBS-activated Sepharose gel
Source text: In order to investigate the structure-function relationship underlying EGCG-mediated induction of LL-37 from human gingival epithelial cell line OBA9, different isomers of benzoic acids are examined for their effects on the LL-37 expression by OBA9 cells. Each isomer of benzoic acids is coupled to NBS-activated Sepharose gel (Pierce) using a cross-linker, 1-Ethyl-3-[3-dimethylaminopropyl]carbodiimide (EDC, Pierce). The isomers of benzoic acids include 1) 2,6-di-hydroxy benzoic acid, 2) 2,3,4-tri-hydroxy benzoic acids, 3) 3,4,5-tri-hydroxy benzoic acids, and 4) 2,4,6-tri-hydroxy benzoic acids.

## O=C(O[C@@H]1Cc2c(O)cc(O)cc2O[C@@H]1c1cc(O)c(O)c(O)c1)c1cc(O)c(O)c(O)c1 [EGCG, epigallocatechin gallate]
[1]
  LL-37 mRNA expression by cheek epithelial cells (RT-PCR): up-regulated
LL37 mRNA in OBA9 cells
  LL37 mRNA expression induced by EGCG: induced
[2]
  binding to DDX5 (pull down, 70 kD band): binds to DDX5
[3]
  LL37 protein expression after EGCG stimulation (ELISA): detected as early as 30 min until 24 hours; also recorded: increased in a time dependent manner
hBD2 mRNA in A549
  production of hBD2 at the mRNA level: increases
[4]
  expression of proform (18 kD) and secreted form (4.5 kD) of LL-37 in cheek epithelial cells (Western blot): induced
[5]
  hBD2 mRNA expression: induced
[6]
  LL-37 mRNA expression: induced
LL-37 in OBA9 cells; OBA9 with no vector, empty vector pK0108 or pK0203
  LL-37 expression induced by EGCG (ELISA): induced the LL-37 expression in all three conditions
LL-37 in OBA9 cells; P<0.05, Student t test
  LL-37 expression induced by EGCG in OBA9 transfected with DDX5 over-expression vector versus no vector or empty vector: significantly higher
[7]
  bactericidal effects of culture supernatant of treated OBA9 cells on Aa Y4: more bactericidal effects
LL-37 mRNA in A549
  production of LL-37 at the mRNA level: increases

## Poly IC
LL-37 from OBA9 cells
  induction of LL-37 (ELISA): induced LL-37
hBD2 from OBA9 cells
  induction of hBD2 (ELISA): minimal induction activities

## O=C(O)c1ccc(O)c(O)c1O [2,3,4-tri-hydroxy benzoic acids, 2,3,4-trihydroxybenzoic acid]
[8]
  induction of LL-37 expression by OBA9 cells: show the induction of LL-37 expression
[2]
  binding to DDX5 (pull down, 70 kD band): only found in 2,3,4-THDC beads

## O=C(O)c1c(O)cccc1O [2,6-di-hydroxy benzoic acids, 2,6-dihydroxy benzoic acid, reference compound]
[8]
  induction of LL-37 expression by OBA9 cells: not

## O=C(O)c1cc(O)c(O)c(O)c1 [3,4,5-tri-hydroxy benzoic acid, 3,4,5-trihydroxybenzoic acid]
[8]
  induction of LL-37 expression by OBA9 cells: show the induction of LL-37 expression
LL-37 from OBA9 cells
  induction of LL-37 (ELISA): more potent than 3,4,-dihydroxy benzoate
[2]
  binding to DDX5 (pull down, 70 kD band): binds to DDX5 expressed in gingival epithelial cells with high affinity
[7]
  bactericidal effects of culture supernatant of treated OBA9 cells on Aa Y4: more bactericidal effects

## O=c1ccc2ccccc2o1 [courmarin]
LL-37 from OBA9 cells
  induction of LL-37 (ELISA): little or no induction

## O=C(/C=C/c1ccc(O)c(O)c1)O[C@H](Cc1ccc(O)c(O)c1)C(=O)O [Rosemarinic acid]
LL-37 from OBA9 cells
  induction of LL-37 (ELISA): little or no induction

## O=C(O[C@@H]1Cc2c(O)cc(O)cc2O[C@@H]1c1cc(O)c(O)c(O)c1)c1cc(O)c(O)c(O)c1 [EGCG (90% Teavigo)]
[4]
  expression of proform (18 kD) and secreted form (4.5 kD) of LL-37 in cheek epithelial cells (Western blot): induced

## CCCCCCCCCCCCCC(=O)O[C@@H]1[C@@H](C)[C@@]2(O)[C@@H](C=C(CO)C[C@]3(O)C(=O)C(C)=C[C@@H]23)[C@@H]2C(C)(C)[C@]12OC(C)=O [PMA]
LL-37 from OBA9 cells
  induction of LL-37 (ELISA): induced LL-37
hBD2 from OBA9 cells
  induction of hBD2 (ELISA): minimal induction activities

## O=C(O)c1c(O)cc(O)cc1O [2,4,6-tri-hydroxy benzoic acids, reference compound]
[8]
  induction of LL-37 expression by OBA9 cells: not
